The numbers were not newly measured in patent publication US20260015669A1, “COMPOSITIONS AND METHODS FOR DETECTING AND TREATING TUMORS AND/OR CANCERS ASSOCIATED WITH BRAF AND/OR MAP2K1 VARIANTS” (North Carolina State University, priority 2022, published 2026), which cites them from elsewhere.

The subject of series [1] is ΔNVTAP mutants. As to conditions: human cancer cell lines; RAF dimer inhibitors target the αC-in/DFG-out conformation.
The target in series [2] is ΔNVTAP mutants (Homo sapiens, UniProt P15056, DEL486-490). As to conditions: human cancer cell lines; in contrast to V600E mutants; inhibitors target the αC-out/DFG-in conformation.
Sequence of ΔNVTAP mutants (Homo sapiens, UniProt P15056, DEL486-490) (P15056 with tags, fused parts or gaps DEL486-490): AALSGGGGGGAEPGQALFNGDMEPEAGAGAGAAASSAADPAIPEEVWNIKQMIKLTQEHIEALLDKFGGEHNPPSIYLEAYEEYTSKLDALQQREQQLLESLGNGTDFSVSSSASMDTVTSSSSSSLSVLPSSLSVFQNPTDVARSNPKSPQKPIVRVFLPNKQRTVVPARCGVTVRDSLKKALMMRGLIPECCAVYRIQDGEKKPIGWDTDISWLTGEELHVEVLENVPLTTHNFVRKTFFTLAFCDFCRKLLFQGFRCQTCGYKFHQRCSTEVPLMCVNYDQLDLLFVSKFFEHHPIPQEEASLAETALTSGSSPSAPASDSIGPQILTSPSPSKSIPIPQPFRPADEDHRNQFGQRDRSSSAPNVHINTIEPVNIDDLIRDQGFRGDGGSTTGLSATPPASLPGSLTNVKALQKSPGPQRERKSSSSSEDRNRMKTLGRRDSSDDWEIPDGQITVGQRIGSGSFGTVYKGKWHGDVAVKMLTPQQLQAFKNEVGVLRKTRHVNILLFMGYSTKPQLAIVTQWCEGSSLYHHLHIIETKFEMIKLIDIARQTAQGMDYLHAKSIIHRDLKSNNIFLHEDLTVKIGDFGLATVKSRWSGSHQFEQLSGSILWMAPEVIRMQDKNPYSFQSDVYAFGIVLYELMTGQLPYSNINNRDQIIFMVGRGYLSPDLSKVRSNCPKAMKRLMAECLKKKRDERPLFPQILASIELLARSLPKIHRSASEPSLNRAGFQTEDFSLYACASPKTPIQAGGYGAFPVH

`Cc1ccc(NC(=O)c2cccc(C(C)(C)C#N)c2)cc1Nc1ccc2ncn(C)c(=O)c2c1` [AZ628]: the “response of mutants with exon 12 in-frame deletions to pan-RAF dimer inhibitors and allosteric MEK inhibitors” value with ΔNVTAP mutants [1] was “susceptible”. Turning to `CNc1ncc2cc(-c3cc(NC(=O)NCCC(C)(C)C)c(F)cc3C)c(C)nc2n1` [LY3009120], in the series on ΔNVTAP mutants [1], the “response of mutants with exon 12 in-frame deletions to pan-RAF dimer inhibitors and allosteric MEK inhibitors” value was “susceptible”. For `O=C(c1ccc(F)c(F)c1Nc1ccc(I)cc1F)N1CC(O)([C@@H]2CCCCN2)C1` [cobimetinib], the “response of mutants with exon 12 in-frame deletions to pan-RAF dimer inhibitors and allosteric MEK inhibitors” value in the series with ΔNVTAP mutants [1] was “susceptible”. On to `CC(C)(C)c1nc(-c2cccc(NS(=O)(=O)c3c(F)cccc3F)c2F)c(-c2ccnc(N)n2)s1` [dabrafenib], for which, at ΔNVTAP mutants [2], the “response of ΔNVTAP mutants to BRAF monomer inhibitors” value is recorded as “resistant”.
